The values below come from patent publication US7109218B2, “Substituted 2-thio-3,5-dicyano-4-phenyl-6-aminopyridines and the use of the same” (Bayer HealthCare AG, priority 2001, dated 2006).

Data set [1] in a line: Pharmacokinetic investigation, oral bioavailability in rats. The format is in vivo. The settings on record: plasma, Rat, at 3 mg/kg p.o., read-out: Bioavailability following oral administration. Here is the method: (§1) Pharmacokinetic data were determined after administering various substances i.v. or p.o. as solutions to mice, rats and dogs. For this, blood samples were collected up to 24 hours after administration. The concentrations of the unaltered substance were determined by bioanalytical methods (HPLC or HPLC-MS) in the plasma samples which were obtained from the blood samples. Pharmacokinetic parameters were subsequently ascertained from the plasma concentration time courses which had been obtained in this way. The following Table 2 gives the bioavailability in the different species.

Data set [2] in a line: Pharmacokinetic investigation, oral bioavailability in dogs. The format is in vivo. The settings on record: plasma, Dog, read-out: Bioavailability following oral administration. As to the method:
as §1

The next data set has as its system heart. Briefly: Cardiovascular effect: heart rate of isolated rat heart in Langerdorff apparatus. The settings on record: isolated perfused rat heart. As to the method: After the thorax has been opened, the heart is rapidly removed from anaesthetized rats and introduced into a conventional Langerdorff apparatus. The coronary arteries are perfused at constant volume (10 ml/min), and the resulting perfusion pressure is recorded by way of an appropriate pressure sensor. In this set-up, a decrease in the perfusion pressure corresponds to a relaxation of the coronary arteries. At the same time, the pressure which the heart develops during each contraction is measured by way of a balloon, which has been introduced into the left ventricle, and a second pressure sensor. The frequency of the heart, which is beating in isolation, is calculated from the number of contractions per time unit.
In this experimental set-up, the following values were obtained for the reduction in heart rate (the stated percentage refers to the reduction of the heart rate in per cent at the concentration in question): […]

For the next data set, the target named is T1, adenosine A2a receptor (Homo sapiens, UniProt P29274).
T1 construct: expressed in transfected cells; host or cells: CHO (Chinese Hamster Ovary)
T1 sequence (P29274 whole entry): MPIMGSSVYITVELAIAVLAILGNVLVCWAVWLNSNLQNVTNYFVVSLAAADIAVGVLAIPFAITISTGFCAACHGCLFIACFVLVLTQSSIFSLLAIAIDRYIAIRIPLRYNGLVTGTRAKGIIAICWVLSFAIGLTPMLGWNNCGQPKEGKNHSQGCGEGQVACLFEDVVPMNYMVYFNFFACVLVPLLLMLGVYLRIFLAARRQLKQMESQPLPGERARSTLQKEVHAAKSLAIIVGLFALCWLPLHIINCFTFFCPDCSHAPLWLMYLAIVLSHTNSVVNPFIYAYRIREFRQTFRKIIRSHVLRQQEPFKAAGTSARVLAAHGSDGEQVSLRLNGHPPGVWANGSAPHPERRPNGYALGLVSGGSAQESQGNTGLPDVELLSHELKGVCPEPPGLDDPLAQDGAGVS
Briefly: Adenosine agonism indirectly by gene expression (luciferase, cAMP-dependent promoter) in transfected CHO cells, A2a. The note with it: read-out: Stimulation of adenosine A2a receptor (% of the maximum stimulation achieved by NECA). The format is cell-based. From the text:
(§2) Cells of the CHO (Chinese Hamster Ovary) permanent cell line are transfected stably with the cDNA for the adenosine receptor subtypes A1, A2a and A2b. The adenosine A1 receptors are coupled to the adenylate cyclase by way of Gi proteins, while the adenosine A2a and A2b receptors are coupled by way of Gs proteins. In correspondence with this, the formation of cAMP in the cell is inhibited or stimulated, respectively. After that, expression of the luciferase is modulated by way of a cAMP-dependent promoter. The luciferase test is optimized, with the aim of high sensitivity and reproducibility, low variance and good suitability for implementation on a robot system, by varying several test parameters, such as cell density, duration of the growth phase and the test incubation, forskolin concentration and medium composition. The following test protocol is used for pharmacologically characterizing cells and for the robot-assisted substance test screening.
(§3) The stock cultures are grown, at 37° C. and under 5% CO2, in DMEM/F12 medium containing 10% FCS (foetal calf serum) and in each case split 1:10 after 2–3 days. The test cultures are seeded in 384-well plates at the rate of from 1 000 to 3 000 cells per well and grown at 37° C. for approx. 48 hours. The medium is then replaced with a physiological sodium chloride solution (130 mM sodium chloride, 5 mM potassium chloride, 2 mM calcium chloride, 20 mM HEPES, 1 mM magnesium chloride 6H2O, 5 mM NaHCO3, pH 7.4). The substances, which are dissolved in DMSO, are diluted 1:10 three times with this physiological sodium chloride solution and pipetted into the test cultures (maximum final concentration of DMSO in the test mixture: 0.5%). In this way, final substance concentrations of, for example, from 5 μM to 5 nM are obtained. 10 minutes later, forskolin is added to the A1 cells and all the cultures are subsequently incubated at 37° C. for four hours. After that, 35 μl of a solution which is composed of 50% lysis reagent (30 mM disodium hydrogenphosphate, 10% glycerol, 3% TritonX100, 25 mM TrisHCl, 2 mM dithiothreitol (DTT), pH 7.8) and 50% luciferase substrate solution (2.5 mM ATP, 0.5 mM luciferin, 0.1 mM coenzyme A, 10 mM tricine, 1.35 mM magnesium sulphate, 15 mM DTT, pH 7.8) are added to the test cultures, the plates are shaken for approx. 1 minute and the luciferase activity is measured using a camera system.
(§4) The table gives the % values of the corresponding reference stimulus. The measured values for the A2a and A2b receptors are values in per cent of the maximum stimulation achieved by NECA; the measured values for the A1 receptor are values in per cent following direct prestimulation of the adenylate cyclase with 1 μmolar forskolin (corresponds to the 100% value).

Data set [3] in a line: Pharmacokinetic investigation, oral bioavailability in mice. The format is in vivo. The settings on record: plasma, Mouse, read-out: Bioavailability following oral administration. As to the method:
as §1

For another data set, the target named is T2, adenosine A2b receptor (Homo sapiens, UniProt P29275).
T2 construct: expressed in transfected cells; host or cells: CHO (Chinese Hamster Ovary)
T2 sequence (P29275 1-332): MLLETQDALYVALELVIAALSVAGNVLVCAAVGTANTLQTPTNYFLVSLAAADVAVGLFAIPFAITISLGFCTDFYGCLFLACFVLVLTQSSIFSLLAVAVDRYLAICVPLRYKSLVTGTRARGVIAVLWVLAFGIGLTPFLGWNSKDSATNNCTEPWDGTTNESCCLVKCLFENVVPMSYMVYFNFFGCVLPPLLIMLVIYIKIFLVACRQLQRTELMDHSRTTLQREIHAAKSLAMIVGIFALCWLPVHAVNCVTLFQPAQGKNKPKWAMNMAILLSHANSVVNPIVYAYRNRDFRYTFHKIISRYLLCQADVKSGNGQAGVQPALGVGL
The data set is described as follows: Adenosine agonism indirectly by gene expression (luciferase, cAMP-dependent promoter) in transfected CHO cells, A2b. The format is cell-based. The settings on record: read-out: Stimulation of adenosine A2b receptor (% of the maximum stimulation achieved by NECA).
From the text: as §2, §3, §4

The next data set concerns the target T3, adenosine A1 receptor (Homo sapiens, UniProt P30542).
T3 construct: expressed in transfected cells; host or cells: CHO (Chinese Hamster Ovary)
T3 sequence (P30542 1-326): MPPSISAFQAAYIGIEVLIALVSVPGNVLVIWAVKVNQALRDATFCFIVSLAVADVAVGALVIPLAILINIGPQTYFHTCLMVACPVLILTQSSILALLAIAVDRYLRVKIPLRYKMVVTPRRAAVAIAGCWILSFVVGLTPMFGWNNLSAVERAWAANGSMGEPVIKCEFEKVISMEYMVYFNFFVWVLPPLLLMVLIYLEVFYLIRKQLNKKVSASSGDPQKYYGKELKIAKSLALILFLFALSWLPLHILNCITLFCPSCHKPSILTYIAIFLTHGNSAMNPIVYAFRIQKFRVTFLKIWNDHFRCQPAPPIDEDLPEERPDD
Briefly: Adenosine agonism indirectly by gene expression (luciferase, cAMP-dependent promoter) in transfected CHO cells, A1. The note with it: 1 μmolar forskolin = 100%, agonists give less than 100%. The format is cell-based.
From the text: as §2, §3, §4

[4] abbreviates: at a concentration of 10^−6 g/ml.
Setting [5] is: at a concentration of 10^−7 g/ml.

Read-outs that look alike come from different tables or passages of the source.

Regarding `COCCOc1ccc(-c2c(C#N)c(N)nc(SCc3cccnc3)c2C#N)cc1` [Example 1, 2-Amino-4-[4-(2-methoxyethoxy)phenyl]-6-[(3-pyridinylmethyl)sulphanyl]pyridine-3,5-dicarbonitrile], the bioavailability in data set [1] amounted to 5%; in data set [2] (at 3 mg/kg p.o.) it was 32.6%; in data set [3] (at 1 mg/kg p.o.) it was 31.5%. The “Reduction of the heart rate in percent” value with heart (setting [4]) came to 17.5%; in the data set on heart (setting [5]) it was 15.0%. Besides, the Emax on adenosine A2a receptor (0.3 nmol) was -1%; at adenosine A2a receptor (1 nmol), 2%; at adenosine A2a receptor (10 nmol) it was -2%; on adenosine A2b receptor (0.3 nmol), 2%; on adenosine A2b receptor (1 nmol), 6%; on adenosine A2b receptor (10 nmol), 8%. Besides, the “Stimulation of adenosine A1 receptor (luciferase activity in % of forskolin prestimulation)” value worked out at 56% on adenosine A1 receptor (0.3 nmol), 11% on adenosine A1 receptor (1 nmol) and 4% at adenosine A1 receptor (10 nmol).

As to `N#Cc1c(N)nc(SCc2csc(-c3ccc(Cl)cc3)n2)c(C#N)c1-c1ccc(OCCO)cc1` [Example 6, 2-Amino-6-({[2-(4-chlorophenyl)-1,3-thiazol-4-yl]methyl}sulphanyl)-4-[4-(2-hydroxyethoxy)phenyl]pyridine-3,5-dicarbonitrile], the bioavailability was 42.3% in data set [1], 28.5% in data set [2] (at 1 mg/kg p.o.) and 41.3% in data set [3] (at 3 mg/kg p.o.). Moreover, the “Reduction of the heart rate in percent” value is recorded as 20.0% with heart (setting [4]) and 15.5% with heart (setting [5]). For the same compound, the Emax was determined as 0% at adenosine A2a receptor (0.3 nmol); 4% on adenosine A2a receptor (1 nmol); 2% on adenosine A2a receptor (10 nmol); 0% at adenosine A2b receptor (0.3 nmol); 3% at adenosine A2b receptor (1 nmol); 29% on adenosine A2b receptor (10 nmol). In addition, the “Stimulation of adenosine A1 receptor (luciferase activity in % of forskolin prestimulation)” value on adenosine A1 receptor (0.3 nmol) worked out at 45%; at adenosine A1 receptor (1 nmol), 25%; at adenosine A1 receptor (10 nmol), 7%.
